Source: US20170190671A1, “BIS(ARYL)CATECHOL DERIVATIVES AS HERBICIDES” (E I DU PONT DE NEMOURS AND COMPANY, priority 2014, published 2017)

Legend:
Type in all cases: in vivo
[1] = system: blackgrass (Alopecurus myosuroides); experiment: Test A postemergence; details: Alopecurus myosuroides, post-emergence, 240 h, 0 to 100 scale, read-out: Plant response rating, Blackgrass; for pest or weed control at 31 g/ha: 31 g ai/ha; for pest or weed control at 125 g/ha: 125 g ai/ha
In short: (§1)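 Pre- and postemergence greenhouse screen. Soil: loam + sand. Spray carrier: solvent mixture, non-phytotoxic, with surfactant. Post timing at 1–2 leaves, height 2–10 cm. Readout: visual injury on a 0–100 scale roughly 10 days after application, untreated plants as reference.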

[2] = system: Italian ryegrass (Lolium multiflorum); experiment: Test A postemergence; details: Lolium multiflorum, post-emergence, 240 h, 0 to 100 scale, read-out: Plant response rating, Ryegrass, Italian; for pest or weed control at 31 g/ha: 31 g ai/ha; for pest or weed control at 125 g/ha: 125 g ai/ha
In short: as §1

kochia (Kochia scoparia) [3] = experiment: Test A postemergence; details: Bassia scoparia, post-emergence, 240 h, 0 to 100 scale, read-out: Plant response rating, Kochia; for pest or weed control at 31 g/ha: 31 g ai/ha; for pest or weed control at 125 g/ha: 125 g ai/ha
In short: as §1

[4] = system: wheat (Triticum aestivum); experiment: Test A postemergence; details: Triticum aestivum, post-emergence, 240 h, 0 to 100 scale, read-out: Plant response rating, Wheat; for plant injury at 31 g/ha: 31 g ai/ha; for plant injury at 125 g/ha: 125 g ai/ha
In short: as §1

[5] = system: pigweed (Amaranthus retroflexus); experiment: Test A postemergence; details: Amaranthus retroflexus, post-emergence, 240 h, 0 to 100 scale, read-out: Plant response rating, Pigweed; for pest or weed control at 31 g/ha: 31 g ai/ha; for pest or weed control at 125 g/ha: 125 g ai/ha
In short: as §1

corn (Zea mays) = experiment: Test A postemergence; details: Zea mays, post-emergence, 240 h, 0 to 100 scale; for Corn plant response rating (crop injury, 0 = no effect, 100 = complete kill) at 31 g/ha: 31 g ai/ha; for Corn plant response rating (crop injury, 0 = no effect, 100 = complete kill) at 125 g/ha: 125 g ai/ha
In short: as §1

[6] = system: ragweed (common ragweed, Ambrosia elatior); experiment: Test A postemergence; details: Ambrosia artemisiifolia, post-emergence, 240 h, 0 to 100 scale, read-out: Plant response rating, Ragweed; for pest or weed control at 31 g/ha: 31 g ai/ha; for pest or weed control at 125 g/ha: 125 g ai/ha
In short: as §1

[7] = system: giant foxtail (Setaria faberii); experiment: Test A postemergence; details: Setaria faberi, post-emergence, 240 h, 0 to 100 scale, read-out: Plant response rating, Foxtail, Giant; for pest or weed control at 31 g/ha: 31 g ai/ha; for pest or weed control at 125 g/ha: 125 g ai/ha
In short: as §1

[8] = system: galium (catchweed bedstraw, Galium aparine); experiment: Test A postemergence; details: Galium, post-emergence, 240 h, 0 to 100 scale, read-out: Plant response rating, Galium; for pest or weed control at 31 g/ha: 31 g ai/ha; for pest or weed control at 125 g/ha: 125 g ai/ha
In short: as §1

[9] = system: barnyardgrass (Echinochloa crus-galli); experiment: Test A postemergence; details: Echinochloa crus-galli, post-emergence, 240 h, 0 to 100 scale, read-out: Plant response rating, Barnyardgrass; for pest or weed control at 31 g/ha: 31 g ai/ha; for pest or weed control at 125 g/ha: 125 g ai/ha
In short: as §1

[10] = system: Italian ryegrass (Lolium multiflorum); experiment: Test A preemergence; details: Lolium multiflorum, pre-emergence, 240 h, 0 to 100 scale (0 no effect, 100 complete control), read-out: Ryegrass, Italian plant response rating; for pest or weed control at 31 g/ha: 31 g ai/ha; for pest or weed control at 125 g/ha: 125 g ai/ha
In short: as §1

kochia (Kochia scoparia) [11] = experiment: Test A preemergence; details: Bassia scoparia, pre-emergence, 240 h, 0 to 100 scale (0 no effect, 100 complete control), read-out: Kochia plant response rating; for pest or weed control at 31 g/ha: 31 g ai/ha; for pest or weed control at 125 g/ha: 125 g ai/ha
In short: as §1

[12] = system: pigweed (Amaranthus retroflexus); experiment: Test A preemergence; details: Amaranthus retroflexus, pre-emergence, 240 h, 0 to 100 scale (0 no effect, 100 complete control), read-out: Pigweed plant response rating; for pest or weed control at 31 g/ha: 31 g ai/ha; for pest or weed control at 125 g/ha: 125 g ai/ha
In short: as §1

[13] = system: ragweed (common ragweed, Ambrosia elatior); experiment: Test A preemergence; details: Ambrosia artemisiifolia, pre-emergence, 240 h, 0 to 100 scale (0 no effect, 100 complete control), read-out: Ragweed plant response rating; for pest or weed control at 31 g/ha: 31 g ai/ha; for pest or weed control at 125 g/ha: 125 g ai/ha
In short: as §1

[14] = system: giant foxtail (Setaria faberii); experiment: Test A preemergence; details: Setaria faberi, pre-emergence, 240 h, 0 to 100 scale (0 no effect, 100 complete control), read-out: Foxtail, Giant plant response rating; for pest or weed control at 31 g/ha: 31 g ai/ha; for pest or weed control at 125 g/ha: 125 g ai/ha
In short: as §1

[15] = system: barnyardgrass (Echinochloa crus-galli); experiment: Test A preemergence; details: Echinochloa crus-galli, pre-emergence, 240 h, 0 to 100 scale (0 no effect, 100 complete control), read-out: Barnyardgrass plant response rating; for pest or weed control at 31 g/ha: 31 g ai/ha; for pest or weed control at 125 g/ha: 125 g ai/ha
In short: as §1

rice (Oryza sativa) = experiment: Test B flooded paddy; details: Oryza sativa, 336 h; 250 g ai/ha, Flood, 13 to 15 days, scale 0 (no effect) to 100 (complete control); read-out: Plant response rating, Rice
In short: (§2)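 Test compounds are applied straight into paddy water held 3 cm above the soil surface, with that flood maintained for the whole test. After 13 to 15 days in the greenhouse, each species is scored visually relative to controls.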

[16] = system: ducksalad (Heteranthera limosa); experiment: Test B flooded paddy; details: Heteranthera limosa, 336 h; 250 g ai/ha, Flood, 13 to 15 days, scale 0 (no effect) to 100 (complete control); read-out: Plant response rating, Ducksalad
In short: as §2

[17] = system: sedge, umbrella (small-flower umbrella sedge, Cyperus difformis); experiment: Test B flooded paddy; details: Cyperus difformis, 336 h; 250 g ai/ha, Flood, 13 to 15 days, scale 0 (no effect) to 100 (complete control); read-out: Plant response rating, Sedge, Umbrella
In short: as §2

[18] = system: barnyardgrass (Echinochloa crus-galli); experiment: Test B flooded paddy; details: Echinochloa crus-galli, 336 h; 250 g ai/ha, Flood, 13 to 15 days, scale 0 (no effect) to 100 (complete control); read-out: Plant response rating, Barnyardgrass
In short: as §2

Structure (SMILES)	pest or weed control at 31 g/ha [1]	pest or weed control at 125 g/ha [1]	pest or weed control at 31 g/ha [2]	pest or weed control at 125 g/ha [2]	pest or weed control at 31 g/ha (kochia (Kochia scoparia) [3])	pest or weed control at 125 g/ha (kochia (Kochia scoparia) [3])	plant injury at 31 g/ha [4]	plant injury at 125 g/ha [4]	pest or weed control at 31 g/ha [5]	pest or weed control at 125 g/ha [5]	Corn plant response rating (crop injury, 0 = no effect, 100 = complete kill) at 31 g/ha (corn (Zea mays))	Corn plant response rating (crop injury, 0 = no effect, 100 = complete kill) at 125 g/ha (corn (Zea mays))	pest or weed control at 31 g/ha [6]	pest or weed control at 125 g/ha [6]	pest or weed control at 31 g/ha [7]	pest or weed control at 125 g/ha [7]	pest or weed control at 31 g/ha [8]	pest or weed control at 125 g/ha [8]	pest or weed control at 31 g/ha [9]	pest or weed control at 125 g/ha [9]	also measured
FCc1cccc(Oc2ncc(Cl)cn2)c1Oc1ncc(Cl)cn1 [Compound 44]	40%	80%	20%	30%	50%	80%	20%	80%	30%	70%	20%	70%	20%	70%	10%	90%	70%	80%	20%	90%	pest or weed control at 31 g/ha [10]: 0%; pest or weed control at 125 g/ha [10]: 20%; pest or weed control at 31 g/ha (kochia (Kochia scoparia) [11]): 60%; pest or weed control at 125 g/ha (kochia (Kochia scoparia) [11]): 100%; pest or weed control at 31 g/ha [12]: 100%; pest or weed control at 125 g/ha [12]: 100%; pest or weed control at 31 g/ha [13]: 0%; pest or weed control at 125 g/ha [13]: 40%; pest or weed control at 31 g/ha [14]: 90%; pest or weed control at 125 g/ha [14]: 100%; pest or weed control at 31 g/ha [15]: 20%; pest or weed control at 125 g/ha [15]: 100%; plant injury at 250 g/ha (rice (Oryza sativa)): 40%; pest or weed control at 250 g/ha [16]: 95%; pest or weed control at 250 g/ha [17]: 75%; pest or weed control at 250 g/ha [18]: 40%
N#Cc1cccc(Oc2ncc(Cl)cn2)c1Oc1cccc(Cl)c1 [Compound 37]	0%	0%	0%	0%	0%	0%	0%	0%	0%	0%	0%	0%	0%	0%	0%	0%	0%	0%	0%	0%	pest or weed control at 31 g/ha [10]: 0%; pest or weed control at 125 g/ha [10]: 0%; pest or weed control at 31 g/ha (kochia (Kochia scoparia) [11]): 0%; pest or weed control at 125 g/ha (kochia (Kochia scoparia) [11]): 0%; pest or weed control at 31 g/ha [12]: 0%; pest or weed control at 125 g/ha [12]: 0%; pest or weed control at 31 g/ha [13]: 0%; pest or weed control at 125 g/ha [13]: 0%; pest or weed control at 31 g/ha [14]: 0%; pest or weed control at 125 g/ha [14]: 0%; pest or weed control at 31 g/ha [15]: 0%; pest or weed control at 125 g/ha [15]: 0%; plant injury at 250 g/ha (rice (Oryza sativa)): 0%; pest or weed control at 250 g/ha [16]: 0%; pest or weed control at 250 g/ha [17]: 0%; pest or weed control at 250 g/ha [18]: 0%
